# Source: patent US20100285959A1, “HERBICIDAL MIXTURES” (priority 2006, published 2010)
# Assays:
# [1] = test system: ivyleaf morningglory (IPOHE); assay: Test 10 field trial, preemergence; format: in vivo, Ipomoea hederacea; conditions: 28 DAA; g a.i./ha: Cpd 2 100, Atrazine 1680, S-Metolachlor 1870
# Description: (§1) Corn seeds (hybrid ‘Pioneer 33P65 RR’) were planted in mid spring season, 2.5 cm deep in a silt loam soil. Plots were 9.1 m long by 3.0 m wide with rows spaced 76 cm apart. The field was managed using conventional tillage practices. […] Results are the means of the three replicates.
# velvetleaf (ABUTH) = assay: Test 8 field trial, preemergence; format: in vivo, Abutilon theophrasti; conditions: g a.i./ha: Cpd 2 100, Atrazine 1680, S-Metolachlor 1870
# Description: (§2) Corn seeds (hybrid ‘Pioneer 31G96’) were planted in mid spring season, 3.8 cm deep in a clay loam soil having 2% organic matter and a pH of 6.6. Plots were 6.1 m long by 3.0 m wide with rows spaced 76 cm apart. Seeds were spaced 15 cm apart within the rows. The field was managed using conventional tillage practices. […] A few of the weed species could not be evaluated at every timing. […] Results are the means of the three replicates.
# large crabgrass (DIGSA) = assay: Test 5 field trial, postemergence; format: in vivo, Digitaria sanguinalis; conditions: atrazine 1120, glufosinate 470 or glyphosate 1120 g a.i./ha alone
# Description: Corn seeds (hybrid ‘Pioneer 38H69’) were planted in mid spring season, 5.1 cm deep in a silty clay loam soil having 3% organic matter and a pH of 6.5. Plots were 9.1 m long by 3.0 m wide with rows spaced 76 cm apart. The field was managed using conventional tillage practices. […] All treatments included a surfactant except glufosinate treatments, both alone and in combination. […] Results are summarized in Table 5 and are the means of the three replicates.
# corn (ZEAMD) [2] = assay: Test 10 field trial, preemergence; format: in vivo, Zea mays ssp. indentata; conditions: 28 DAA; g a.i./ha: Cpd 2 100, Atrazine 1680, S-Metolachlor 1870
# Description: as §1
# redroot pigweed (AMARE) = assay: Test 2 field trial, preemergence; format: in vivo, Amaranthus retroflexus; set-up: scale not given here
# Description: as §2
# alexandergrass (BRAPL) = assay: Test 11 field trial, preemergence; format: in vivo, Brachiaria plantaginea; set-up: scale not given here; conditions: atrazine 1500 or metolachlor 2500 g a.i./ha alone
# Description: Corn seeds (hybrid ‘Pioneer 3041’) were planted in mid spring season, 5 cm deep in a clay soil having 2.6% organic matter and a pH of 5.6. Plots were 8 m long by 1.5 m wide with rows spaced 80 cm apart. Seeds were spaced 15 cm apart within the rows. The field was managed using conventional tillage practices. […] Treatments consisted of Compound 2 or
# Goosegrass was not evaluated 16 or 91 days after application.
# [3] = test system: Pennsylvania smartweed (POLPY); assay: Test 6 field trial, postemergence; format: in vivo, Polygonum pensylvanicum; conditions: 1120 g a.i./ha
# Description: (§3) Corn seeds (hybrid ‘Pioneer 35Y62’) were planted in mid spring season, 3.8 cm deep in a silt loam soil having 4% organic matter and a pH of 5.8. Plots were 10.7 m long by 1.5 m wide with rows spaced 76 cm apart. Seeds were spaced 18 cm apart within the rows. The field was managed using conventional tillage practices. […] All treatments included a surfactant except glufosinate treatments, both alone and in combination. […] Results are summarized in Table 6 and are the means of the three replicates.
# giant foxtail (SETFA) = assay: Test 8 field trial, preemergence; format: in vivo, Setaria faberi; conditions: g a.i./ha: Cpd 2 100, Atrazine 1680, S-Metolachlor 1870
# Description: as §2
# [4] = test system: common lambsquarters (CHEAL); assay: Test 6 field trial, postemergence; format: in vivo, Chenopodium album; conditions: 1120 g a.i./ha
# Description: as §3
# corn (ZEAMD) [5] = assay: Test 2 field trial, preemergence; format: in vivo, Zea mays ssp. indentata
# Description: as §2
# [6] = 28 DAA, g a.i./ha: Cpd 2 25, Atrazine 250
# [7] = 28 DAA, g a.i./ha: Cpd 2 50, Atrazine 500
# [8] = 28 DAA, g a.i./ha: Cpd 2 75, Atrazine 750
# [9] = 28 DAA, g a.i./ha: Cpd 2 100, Atrazine 1000
# [10] = 28 DAA, g a.i./ha: Cpd 2 150, Atrazine 1500
# [11] = 55 DAA, g a.i./ha: Cpd 2 25, Atrazine 250
# [12] = 55 DAA, g a.i./ha: Cpd 2 50, Atrazine 500
# [13] = 55 DAA, g a.i./ha: Cpd 2 75, Atrazine 750
# [14] = 55 DAA, g a.i./ha: Cpd 2 100, Atrazine 1000
# [15] = 55 DAA, g a.i./ha: Cpd 2 150, Atrazine 1500
compound,measurement,setting,value
"CCNc1nc(Cl)nc(NC(C)C)n1 [Atrazine, atrazine, reference compound]",IPOHE Obs,[1],37%
same,ABUTH Obs,velvetleaf (ABUTH); 19 DAA,87%
same,ABUTH Obs,velvetleaf (ABUTH); 29 DAA,99%
same,ABUTH Obs,velvetleaf (ABUTH); 56 DAA,98%
same,DIGSA Obs,large crabgrass (DIGSA); 16 DAA,0%
same,DIGSA Obs,large crabgrass (DIGSA); 31 DAA,0%
same,ZEAMD Obs,corn (ZEAMD) [2],0%
same,AMARE Obs,redroot pigweed (AMARE); [6],72
same,AMARE Obs,redroot pigweed (AMARE); [7],97
same,AMARE Obs,redroot pigweed (AMARE); [8],90
same,AMARE Obs,redroot pigweed (AMARE); [9],100
same,AMARE Obs,redroot pigweed (AMARE); [10],100
same,AMARE Obs,redroot pigweed (AMARE); [11],95
same,AMARE Obs,redroot pigweed (AMARE); [12],99
same,AMARE Obs,redroot pigweed (AMARE); [13],100
same,AMARE Obs,redroot pigweed (AMARE); [14],100
same,AMARE Obs,redroot pigweed (AMARE); [15],100
same,BRAPL Obs,alexandergrass (BRAPL); 16 DAA,75
same,BRAPL Obs,alexandergrass (BRAPL); 30 DAA,50
same,BRAPL Obs,alexandergrass (BRAPL); 44 DAA,50
same,BRAPL Obs,alexandergrass (BRAPL); 62 DAA,0
same,BRAPL Obs,alexandergrass (BRAPL); 91 DAA,0
same,POLPY Obs,[3]; 14 DAA,73%
same,POLPY Obs,[3]; 28 DAA,83%
same,SETFA Obs,giant foxtail (SETFA); 19 DAA,60%
same,SETFA Obs,giant foxtail (SETFA); 29 DAA,88%
same,SETFA Obs,giant foxtail (SETFA); 56 DAA,67%
same,CHEAL Obs,[4]; 14 DAA,100%
same,CHEAL Obs,[4]; 28 DAA,100%
same,ZEAMD Obs,"corn (ZEAMD) [5]; 18 DAA, g a.i./ha: Cpd 2 25, Atrazine 250",8
same,ZEAMD Obs,"corn (ZEAMD) [5]; 18 DAA, g a.i./ha: Cpd 2 50, Atrazine 500",5
same,ZEAMD Obs,"corn (ZEAMD) [5]; 18 DAA, g a.i./ha: Cpd 2 75, Atrazine 750",15
same,ZEAMD Obs,"corn (ZEAMD) [5]; 18 DAA, g a.i./ha: Cpd 2 100, Atrazine 1000",7
same,ZEAMD Obs,"corn (ZEAMD) [5]; 18 DAA, g a.i./ha: Cpd 2 150, Atrazine 1500",5
same,ZEAMD Obs,corn (ZEAMD) [5]; [6],2
same,ZEAMD Obs,corn (ZEAMD) [5]; [7],7
same,ZEAMD Obs,corn (ZEAMD) [5]; [8],12
same,ZEAMD Obs,corn (ZEAMD) [5]; [9],8
same,ZEAMD Obs,corn (ZEAMD) [5]; [10],3
same,ZEAMD Obs,corn (ZEAMD) [5]; [11],0
same,ZEAMD Obs,corn (ZEAMD) [5]; [12],0
same,ZEAMD Obs,corn (ZEAMD) [5]; [13],0
same,ZEAMD Obs,corn (ZEAMD) [5]; [14],0
same,ZEAMD Obs,corn (ZEAMD) [5]; [15],0
